According to ChEMBL document CHEMBL4507258 (2021):

What was measured:
[1] = test system: Tyrosine-protein kinase ABL1 (Homo sapiens), P00519 [H396P]; conditions: Compound concentration 1000.0 nM
[2] = target: Casein kinase I isoform gamma-3 (Homo sapiens) (UniProt Q9Y6M4); conditions: Compound concentration 1000.0 nM
[3] = target: Calcium/calmodulin-dependent protein kinase kinase 1 (Homo sapiens) (UniProt Q8N5S9); conditions: Compound concentration 1000.0 nM
[4] = target: Beta-adrenergic receptor kinase 1 (Homo sapiens) (UniProt P25098); conditions: Compound concentration 1000.0 nM
Beta-adrenergic receptor kinase 1 (Homo sapiens), sequence (P25098 whole entry): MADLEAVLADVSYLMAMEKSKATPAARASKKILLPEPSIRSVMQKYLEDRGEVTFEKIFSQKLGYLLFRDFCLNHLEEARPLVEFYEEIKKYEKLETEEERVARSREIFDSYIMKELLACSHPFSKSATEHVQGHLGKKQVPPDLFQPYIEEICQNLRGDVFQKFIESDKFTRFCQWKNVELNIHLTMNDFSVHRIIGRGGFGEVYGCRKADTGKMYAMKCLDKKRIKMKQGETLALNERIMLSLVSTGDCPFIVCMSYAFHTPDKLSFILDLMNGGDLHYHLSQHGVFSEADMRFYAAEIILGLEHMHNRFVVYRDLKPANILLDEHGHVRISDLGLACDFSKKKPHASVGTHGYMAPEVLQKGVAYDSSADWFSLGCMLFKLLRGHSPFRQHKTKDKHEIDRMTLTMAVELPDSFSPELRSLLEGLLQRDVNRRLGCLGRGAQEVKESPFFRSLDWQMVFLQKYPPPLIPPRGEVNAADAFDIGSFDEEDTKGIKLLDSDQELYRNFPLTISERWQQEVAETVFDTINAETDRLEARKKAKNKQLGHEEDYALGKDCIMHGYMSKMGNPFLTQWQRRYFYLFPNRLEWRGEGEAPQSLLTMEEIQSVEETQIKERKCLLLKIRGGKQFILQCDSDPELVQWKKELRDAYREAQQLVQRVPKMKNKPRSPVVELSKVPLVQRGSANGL

[5] = target: Serine/threonine-protein kinase PLK3 (Homo sapiens) (UniProt Q9H4B4); conditions: Compound concentration 1000.0 nM
[6] = target: Protein kinase C theta type (Homo sapiens) (UniProt Q04759); conditions: Compound concentration 1000.0 nM
[7] = target: Tyrosine-protein kinase receptor Tie-1 (Homo sapiens) (UniProt P35590); conditions: Compound concentration 1000.0 nM
[8] = target: Serine/threonine-protein kinase PLK4 (Homo sapiens) (UniProt O00444); conditions: Compound concentration 1000.0 nM
[9] = target: Tyrosine-protein kinase ZAP-70 (Homo sapiens) (UniProt P43403); conditions: Compound concentration 1000.0 nM
[10] = target: Proto-oncogene tyrosine-protein kinase ROS (Homo sapiens) (UniProt P08922); conditions: Compound concentration 1000.0 nM
[11] = target: Casein kinase I isoform gamma-1 (Homo sapiens) (UniProt Q9HCP0); conditions: Compound concentration 1000.0 nM
[12] = target: Protein kinase C eta type (Homo sapiens) (UniProt P24723); conditions: Compound concentration 1000.0 nM
[13] = target: Serine/threonine-protein kinase TBK1 (Homo sapiens) (UniProt Q9UHD2); conditions: Compound concentration 1000.0 nM
[14] = target: Ribosomal protein S6 kinase alpha-6 (Homo sapiens) (UniProt Q9UK32); conditions: Compound concentration 1000.0 nM
[15] = target: Serine/threonine-protein kinase 24 (Homo sapiens) (UniProt Q9Y6E0); conditions: Compound concentration 1000.0 nM
[16] = target: Tyrosine-protein kinase Fer (Homo sapiens) (UniProt P16591); conditions: Compound concentration 1000.0 nM
Tyrosine-protein kinase Fer (Homo sapiens), sequence (P16591 whole entry, looked up): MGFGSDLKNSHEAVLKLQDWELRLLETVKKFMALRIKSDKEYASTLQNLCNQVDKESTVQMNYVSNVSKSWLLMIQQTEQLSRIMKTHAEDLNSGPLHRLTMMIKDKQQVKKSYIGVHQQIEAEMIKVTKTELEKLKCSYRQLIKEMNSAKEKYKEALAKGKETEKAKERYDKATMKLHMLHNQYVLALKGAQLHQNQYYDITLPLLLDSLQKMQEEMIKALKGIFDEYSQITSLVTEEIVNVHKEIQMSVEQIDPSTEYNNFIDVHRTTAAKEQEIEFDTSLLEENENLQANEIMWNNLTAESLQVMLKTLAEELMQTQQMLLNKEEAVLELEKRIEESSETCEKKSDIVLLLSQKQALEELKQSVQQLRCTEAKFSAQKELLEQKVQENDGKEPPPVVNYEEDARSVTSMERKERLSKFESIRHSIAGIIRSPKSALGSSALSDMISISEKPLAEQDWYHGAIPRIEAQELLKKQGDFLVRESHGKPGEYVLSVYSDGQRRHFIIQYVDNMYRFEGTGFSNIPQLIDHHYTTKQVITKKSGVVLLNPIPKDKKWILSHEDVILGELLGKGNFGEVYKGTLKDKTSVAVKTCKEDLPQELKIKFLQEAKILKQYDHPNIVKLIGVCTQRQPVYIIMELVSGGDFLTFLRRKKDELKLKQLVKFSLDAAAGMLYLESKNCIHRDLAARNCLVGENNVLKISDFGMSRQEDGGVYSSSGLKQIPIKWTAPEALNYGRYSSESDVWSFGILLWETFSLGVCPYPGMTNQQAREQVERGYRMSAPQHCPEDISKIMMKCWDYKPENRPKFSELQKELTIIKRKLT

[17] = target: Serine/threonine-protein kinase Chk2 (Homo sapiens) (UniProt O96017); conditions: Compound concentration 1000.0 nM
Serine/threonine-protein kinase Chk2 (Homo sapiens), sequence (O96017 whole entry): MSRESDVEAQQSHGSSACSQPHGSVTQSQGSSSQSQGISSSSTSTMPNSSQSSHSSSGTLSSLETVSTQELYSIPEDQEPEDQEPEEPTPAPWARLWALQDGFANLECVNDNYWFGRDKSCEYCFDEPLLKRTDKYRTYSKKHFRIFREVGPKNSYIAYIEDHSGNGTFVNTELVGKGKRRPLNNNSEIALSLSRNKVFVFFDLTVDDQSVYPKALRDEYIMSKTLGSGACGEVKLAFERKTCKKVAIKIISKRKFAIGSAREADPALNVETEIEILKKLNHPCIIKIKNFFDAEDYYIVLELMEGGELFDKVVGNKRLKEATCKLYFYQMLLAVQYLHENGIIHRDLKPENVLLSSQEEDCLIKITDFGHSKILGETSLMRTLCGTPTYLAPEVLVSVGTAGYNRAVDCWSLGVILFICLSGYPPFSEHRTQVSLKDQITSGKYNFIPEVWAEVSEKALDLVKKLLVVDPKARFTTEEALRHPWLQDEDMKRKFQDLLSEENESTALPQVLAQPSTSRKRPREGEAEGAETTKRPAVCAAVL

[18] = test system: Epidermal growth factor receptor (Homo sapiens), P00533 [UNDEFINED MUTATION]; conditions: Compound concentration 1000.0 nM
[19] = target: Bone morphogenetic protein receptor type-1B (Homo sapiens) (UniProt O00238); conditions: Compound concentration 1000.0 nM
[20] = target: T1, Muscarinic acetylcholine receptor M2 (Homo sapiens) (UniProt P08172); conditions: Compound concentration 10.0 uM
T1 sequence (whole entry): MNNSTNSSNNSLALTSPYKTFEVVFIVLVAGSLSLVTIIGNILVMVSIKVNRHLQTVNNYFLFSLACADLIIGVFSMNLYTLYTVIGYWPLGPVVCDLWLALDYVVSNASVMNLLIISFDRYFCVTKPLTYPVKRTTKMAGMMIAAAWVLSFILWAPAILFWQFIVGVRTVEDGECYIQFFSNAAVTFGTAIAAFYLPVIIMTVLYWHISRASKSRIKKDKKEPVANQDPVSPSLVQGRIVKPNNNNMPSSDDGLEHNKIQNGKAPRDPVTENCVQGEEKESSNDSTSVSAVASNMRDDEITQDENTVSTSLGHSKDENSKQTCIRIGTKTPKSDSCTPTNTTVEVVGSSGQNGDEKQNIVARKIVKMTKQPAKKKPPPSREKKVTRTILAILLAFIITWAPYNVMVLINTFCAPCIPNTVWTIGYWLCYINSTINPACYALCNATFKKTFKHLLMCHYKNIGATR

[21] = target: Cyclin-G-associated kinase (Homo sapiens) (UniProt O14976); conditions: Compound concentration 1000.0 nM
[22] = target: Ribosomal protein S6 kinase alpha-3 (Homo sapiens) (UniProt P51812); conditions: Compound concentration 1000.0 nM
[23] = test system: Epidermal growth factor receptor (Homo sapiens), P00533 [G719C]; conditions: Compound concentration 1000.0 nM
[24] = target: Non-receptor tyrosine-protein kinase TNK1 (Homo sapiens) (UniProt Q13470); conditions: Compound concentration 1000.0 nM
[25] = target: Phosphatidylinositol 4,5-bisphosphate 3-kinase catalytic subunit alpha isoform (Homo sapiens) (UniProt P42336); conditions: Compound concentration 1000.0 nM
Phosphatidylinositol 4,5-bisphosphate 3-kinase catalytic subunit alpha isoform (Homo sapiens), sequence (P42336 whole entry, canonical isoform): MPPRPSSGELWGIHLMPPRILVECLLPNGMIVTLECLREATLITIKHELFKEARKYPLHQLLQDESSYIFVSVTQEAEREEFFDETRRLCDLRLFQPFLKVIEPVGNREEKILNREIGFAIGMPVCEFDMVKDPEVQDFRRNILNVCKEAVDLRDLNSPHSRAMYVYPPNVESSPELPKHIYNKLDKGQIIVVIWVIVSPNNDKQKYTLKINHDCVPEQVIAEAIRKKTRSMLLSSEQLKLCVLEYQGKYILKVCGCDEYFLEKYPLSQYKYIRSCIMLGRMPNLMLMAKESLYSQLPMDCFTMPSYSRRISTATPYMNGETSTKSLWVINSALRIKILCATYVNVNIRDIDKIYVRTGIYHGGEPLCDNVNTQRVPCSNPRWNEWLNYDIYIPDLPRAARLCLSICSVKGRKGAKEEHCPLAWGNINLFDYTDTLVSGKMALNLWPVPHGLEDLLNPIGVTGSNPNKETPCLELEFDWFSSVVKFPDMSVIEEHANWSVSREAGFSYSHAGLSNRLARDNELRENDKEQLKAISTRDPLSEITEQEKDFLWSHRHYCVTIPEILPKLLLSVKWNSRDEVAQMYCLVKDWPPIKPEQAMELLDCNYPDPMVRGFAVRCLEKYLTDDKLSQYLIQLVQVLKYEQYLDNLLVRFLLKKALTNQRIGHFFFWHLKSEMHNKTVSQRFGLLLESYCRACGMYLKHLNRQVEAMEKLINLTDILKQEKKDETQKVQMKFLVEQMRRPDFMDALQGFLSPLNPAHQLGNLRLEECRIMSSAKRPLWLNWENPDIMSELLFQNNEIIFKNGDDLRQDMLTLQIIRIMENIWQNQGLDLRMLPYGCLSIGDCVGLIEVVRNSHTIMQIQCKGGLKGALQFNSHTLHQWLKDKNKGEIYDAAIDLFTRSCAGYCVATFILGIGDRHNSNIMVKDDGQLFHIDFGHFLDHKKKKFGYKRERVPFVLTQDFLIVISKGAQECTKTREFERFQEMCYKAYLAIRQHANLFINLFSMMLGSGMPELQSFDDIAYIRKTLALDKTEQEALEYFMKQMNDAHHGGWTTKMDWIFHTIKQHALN

[26] = test system: Proto-oncogene tyrosine-protein kinase receptor Ret (Homo sapiens), P07949 [V804L]; conditions: Compound concentration 1000.0 nM
[27] = target: RAC-gamma serine/threonine-protein kinase (Homo sapiens) (UniProt Q9Y243); conditions: Compound concentration 1000.0 nM
[28] = target: Tyrosine-protein kinase BTK (Homo sapiens) (UniProt Q06187); conditions: Compound concentration 1000.0 nM
[29] = target: Myosin light chain kinase family member 4 (Homo sapiens) (UniProt Q86YV6); conditions: Compound concentration 1000.0 nM
Myosin light chain kinase family member 4 (Homo sapiens), sequence (Q86YV6 whole entry): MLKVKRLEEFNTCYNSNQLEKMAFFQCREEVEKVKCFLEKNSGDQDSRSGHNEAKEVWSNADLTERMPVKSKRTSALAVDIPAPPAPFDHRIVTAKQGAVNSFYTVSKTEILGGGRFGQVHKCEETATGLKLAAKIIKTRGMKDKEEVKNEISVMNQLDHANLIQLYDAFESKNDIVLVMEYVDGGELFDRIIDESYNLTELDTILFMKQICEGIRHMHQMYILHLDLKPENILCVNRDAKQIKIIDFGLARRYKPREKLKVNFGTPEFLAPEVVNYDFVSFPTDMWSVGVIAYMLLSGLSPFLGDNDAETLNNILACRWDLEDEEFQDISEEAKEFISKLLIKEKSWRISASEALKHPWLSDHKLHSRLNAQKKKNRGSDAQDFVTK

[30] = target: Ephrin type-A receptor 2 (Homo sapiens) (UniProt P29317); conditions: Compound concentration 1000.0 nM
[31] = target: Calcium/calmodulin-dependent protein kinase type 1 (Homo sapiens) (UniProt Q14012); conditions: Compound concentration 1000.0 nM
[32] = target: 5-hydroxytryptamine receptor 2A (Homo sapiens) (UniProt P28223); conditions: Compound concentration 10.0 uM
[33] = test system: Mast/stem cell growth factor receptor Kit (Homo sapiens), P10721 [V559D,T670I]; conditions: Compound concentration 1000.0 nM
Mast/stem cell growth factor receptor Kit (Homo sapiens), P10721 [V559D,T670I], sequence (P10721 whole entry V559D/T670I): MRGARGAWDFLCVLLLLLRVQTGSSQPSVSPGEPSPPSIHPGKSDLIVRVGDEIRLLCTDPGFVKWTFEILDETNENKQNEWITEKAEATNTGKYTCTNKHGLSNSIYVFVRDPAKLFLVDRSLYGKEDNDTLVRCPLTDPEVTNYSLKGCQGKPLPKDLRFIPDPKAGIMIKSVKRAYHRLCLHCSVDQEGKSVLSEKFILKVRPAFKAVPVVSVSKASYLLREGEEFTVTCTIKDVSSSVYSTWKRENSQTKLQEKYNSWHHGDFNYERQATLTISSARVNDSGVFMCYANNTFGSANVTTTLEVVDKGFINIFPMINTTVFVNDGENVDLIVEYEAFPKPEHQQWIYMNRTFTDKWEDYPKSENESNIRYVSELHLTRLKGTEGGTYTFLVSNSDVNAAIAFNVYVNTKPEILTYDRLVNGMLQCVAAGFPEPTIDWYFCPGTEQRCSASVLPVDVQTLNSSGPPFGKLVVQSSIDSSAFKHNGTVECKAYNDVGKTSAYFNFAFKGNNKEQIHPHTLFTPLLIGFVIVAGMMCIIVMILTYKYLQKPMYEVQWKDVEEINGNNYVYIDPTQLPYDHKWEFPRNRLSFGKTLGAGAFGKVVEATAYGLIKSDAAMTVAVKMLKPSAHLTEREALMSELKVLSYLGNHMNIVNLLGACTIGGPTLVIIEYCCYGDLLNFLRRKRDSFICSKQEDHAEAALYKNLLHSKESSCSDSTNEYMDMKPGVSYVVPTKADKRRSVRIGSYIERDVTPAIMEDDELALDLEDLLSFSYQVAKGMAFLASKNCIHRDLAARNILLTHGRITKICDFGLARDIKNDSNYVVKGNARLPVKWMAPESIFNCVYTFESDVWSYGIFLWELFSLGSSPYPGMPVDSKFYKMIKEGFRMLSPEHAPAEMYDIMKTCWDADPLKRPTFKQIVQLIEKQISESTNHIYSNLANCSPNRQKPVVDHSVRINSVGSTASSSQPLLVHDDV

[34] = target: Ribosomal protein S6 kinase beta-1 (Homo sapiens) (UniProt P23443); conditions: Compound concentration 1000.0 nM
[35] = target: Ephrin type-B receptor 3 (Homo sapiens) (UniProt P54753); conditions: Compound concentration 1000.0 nM
[36] = target: Mitogen-activated protein kinase kinase kinase 3 (Homo sapiens) (UniProt Q99759); conditions: Compound concentration 1000.0 nM
[37] = target: Fibroblast growth factor receptor 4 (Homo sapiens) (UniProt P22455); conditions: Compound concentration 1000.0 nM
[38] = target: TRAF2 and NCK-interacting protein kinase (Homo sapiens) (UniProt Q9UKE5); conditions: Compound concentration 1000.0 nM
[39] = target: Ephrin type-B receptor 4 (Homo sapiens) (UniProt P54760); conditions: Compound concentration 1000.0 nM

Casein kinase I isoform gamma-3 (Homo sapiens), sequence (Q9Y6M4 whole entry, looked up, canonical isoform): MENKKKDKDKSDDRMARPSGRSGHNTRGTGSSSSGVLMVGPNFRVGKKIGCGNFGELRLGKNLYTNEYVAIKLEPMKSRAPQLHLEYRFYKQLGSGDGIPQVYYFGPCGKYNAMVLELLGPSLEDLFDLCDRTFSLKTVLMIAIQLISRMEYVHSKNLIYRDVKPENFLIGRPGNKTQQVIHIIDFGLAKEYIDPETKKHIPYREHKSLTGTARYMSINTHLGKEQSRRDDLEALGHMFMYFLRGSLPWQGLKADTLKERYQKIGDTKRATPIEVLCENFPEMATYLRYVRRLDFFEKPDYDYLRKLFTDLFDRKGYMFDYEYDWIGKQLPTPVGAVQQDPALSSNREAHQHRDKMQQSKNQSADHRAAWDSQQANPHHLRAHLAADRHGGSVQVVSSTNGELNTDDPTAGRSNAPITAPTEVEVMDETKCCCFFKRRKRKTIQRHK

With `CCCCN(CCCC)C(=O)CN1C[C@H](c2cc(OC)c3c(c2)OCO3)[C@@H](C(=O)O)[C@@H]1CC(C)(C)CCC` [ABT-546] as the compound, how does the residual activity [1] read?
Its residual activity is 96.1%.

What about the residual activity [2] of the same compound?
The residual activity was 100%.

What about the residual activity [3] of the same compound?
Its residual activity is 100%.

What about the residual activity [4] of the same compound?
The residual activity was 71.8%.

What about the residual activity [5] of the same compound?
The residual activity was 90.6%.

And the residual activity [6]?
Its residual activity is 100%.

And the residual activity [7]?
The residual activity was 100%.

What about the residual activity [8] of the same compound?
Its residual activity is 100%.

And the residual activity [9]?
The residual activity was 70.1%.

And the residual activity [10]?
The residual activity was 100%.

What about the residual activity [11] of the same compound?
Its residual activity is 100%.

What about the residual activity [12] of the same compound?
The residual activity was 100%.

What about the residual activity [13] of the same compound?
Its residual activity is 100%.

What about the residual activity [14] of the same compound?
The residual activity was 76.4%.

And the residual activity [15]?
Its residual activity is 100%.

And the residual activity [16]?
Its residual activity is 100%.

And the residual activity [17]?
The residual activity was 100%.

What about the residual activity [18] of the same compound?
The residual activity was 79.8%.

What about the residual activity [19] of the same compound?
Its residual activity is 59%.

What about the inhibition [20] of the same compound?
Its inhibition is -1.89%.

And the residual activity [21]?
The residual activity was 100%.

And the residual activity [22]?
Its residual activity is 100%.

What about the residual activity [23] of the same compound?
The residual activity was 95.4%.

What about the residual activity [24] of the same compound?
Its residual activity is 100%.

What about the residual activity [25] of the same compound?
The residual activity was 89.7%.

What about the residual activity [26] of the same compound?
The residual activity was 100%.

And the residual activity [27]?
The residual activity was 100%.

And the residual activity [28]?
The residual activity was 61.3%.

And the residual activity [29]?
Its residual activity is 99.1%.

And the residual activity [30]?
The residual activity was 100%.

What about the residual activity [31] of the same compound?
The residual activity was 100%.

What about the inhibition [32] of the same compound?
The inhibition was 8.83%.

What about the residual activity [33] of the same compound?
Its residual activity is 100%.

What about the residual activity [34] of the same compound?
The residual activity was 92.8%.

And the residual activity [35]?
The residual activity was 100%.

And the residual activity [36]?
The residual activity was 94.3%.

What about the residual activity [37] of the same compound?
Its residual activity is 100%.

And the residual activity [38]?
Its residual activity is 100%.

What about the residual activity [39] of the same compound?
The residual activity was 100%.

With `CCCCN(CCCC)C(=O)CN1C[C@@H](c2cc(OC)c3c(c2)OCO3)[C@H](C(=O)O)[C@H]1CC(C)(C)CCC` [A-545] as the compound, how does the residual activity [1] read?
Its residual activity is 100%.

What about the residual activity [2] of the same compound?
Its residual activity is 100%.

And the residual activity [3]?
Its residual activity is 100%.

What about the residual activity [4] of the same compound?
Its residual activity is 97.8%.

And the residual activity [5]?
The residual activity was 93.5%.

What about the residual activity [6] of the same compound?
The residual activity was 78.6%.

And the residual activity [7]?
Its residual activity is 94.7%.

What about the residual activity [8] of the same compound?
The residual activity was 84.1%.

And the residual activity [9]?
Its residual activity is 98.5%.

What about the residual activity [10] of the same compound?
The residual activity was 100%.

What about the residual activity [11] of the same compound?
Its residual activity is 100%.

And the residual activity [12]?
The residual activity was 0%.

And the residual activity [13]?
The residual activity was 100%.

What about the residual activity [14] of the same compound?
The residual activity was 96.6%.

And the residual activity [15]?
The residual activity was 93.9%.

What about the residual activity [16] of the same compound?
The residual activity was 100%.

What about the residual activity [17] of the same compound?
The residual activity was 87.8%.

What about the residual activity [18] of the same compound?
The residual activity was 75.9%.

What about the residual activity [19] of the same compound?
Its residual activity is 100%.

And the inhibition [20]?
The inhibition was 3.71%.

And the residual activity [21]?
Its residual activity is 95.8%.

And the residual activity [22]?
Its residual activity is 99.2%.

And the residual activity [23]?
The residual activity was 100%.

What about the residual activity [24] of the same compound?
Its residual activity is 100%.

And the residual activity [25]?
The residual activity was 95.9%.

What about the residual activity [26] of the same compound?
Its residual activity is 100%.

What about the residual activity [27] of the same compound?
The residual activity was 100%.

What about the residual activity [28] of the same compound?
Its residual activity is 100%.

What about the residual activity [29] of the same compound?
The residual activity was 100%.

What about the residual activity [30] of the same compound?
Its residual activity is 97.8%.

What about the residual activity [31] of the same compound?
The residual activity was 100%.

What about the inhibition [32] of the same compound?
Its inhibition is 7.84%.

What about the residual activity [33] of the same compound?
The residual activity was 79%.

What about the residual activity [34] of the same compound?
Its residual activity is 99%.

What about the residual activity [35] of the same compound?
The residual activity was 100%.

What about the residual activity [36] of the same compound?
The residual activity was 100%.

And the residual activity [37]?
Its residual activity is 95.8%.

And the residual activity [38]?
The residual activity was 86%.

What about the residual activity [39] of the same compound?
Its residual activity is 98.5%.
